Laboratory results published in paper PMC6271088, “Quantification of the Resveratrol Analogs trans-2,3-Dimethoxy-stilbene and trans-3,4-Dimethoxystilbene in Rat Plasma: Application to Pre-Clinical Pharmacokinetic Studies” (Molecules, 2014).
“Also recorded” adds a separate entry of the source. Where two headings read alike, the source gives them in different places.

Tests used:
[1] = cited from earlier work
[2] = Post-preparative stability (processed samples in auto-sampler vial); format: physicochemical; details: rat, Post-preparative samples stored at 24 °C for 24 h, read-out: Stability (% Remained); for remaining at 24 h, 25 ng/mL: spiked 25 ng/mL; for remaining at 24 h, 400 ng/mL: spiked 400 ng/mL; for remaining at 24 h, 1400 ng/mL: spiked 1400 ng/mL
Protocol: (§1) Stock solutions of analytes were prepared in DMSO to a final concentration of 1 mg/mL, stored at room temperature (24 °C) and protected from light. The internal standard (IS) (trans-stilbene) was prepared by dissolving in acetonitrile and diluted to 100 ng/mL (working solution). Equal volumes of rat liver microsome (RLM) and trans-stilbene–acetonitrile working solution were mixed to quench the reaction. After vigorous vortexing for 20 s, the samples were centrifuged at 6,000 g for 10 min at 4 °C. Rat plasma samples were processed by adding trans-stilbene–acetonitrile working solution to rat plasma in 3:1 ratio. After vigorous vortexing for 20 s, the samples were centrifuged at 10,000 g for 4 min at 4 °C. Finally, the supernatant was transferred into a glass insert that was pre-installed in a 1.5 mL auto-sampler vial. During each assay, 75 µL supernatant was injected into the HPLC-UV system.
(§2) Stabilities of 2,3-DMS in stock solution were evaluated after storage at room temperature for eight days. Stability of 2,3-DMS in rat plasma under different conditions was profiled with QC samples. Freeze-thaw stability was assessed after three freeze (−80 °C)–thaw (24 °C) cycles. Short-term room temperature stability (24 °C) of 2,3-DMS in rat plasma was examined after storing such samples at room temperature for 6 h. Long-term storage stability of 2,3-DMS in rat plasma was studied after being stored at −80 °C for 10 days. Post-preparative stability study was conducted by re-analyzing samples (kept in auto-sampler vial at room temperature) 24 h later. The stability of 3,4-DMS was assessed in the same way. Samples were considered stable if analytical responses were within 100% ± 15% of corresponding freshly prepared samples.

[3] = Oral pharmacokinetics in Sprague-Dawley rats; format: in vivo; details: for post-dosing plasma samples above LLOQ (10 ng/mL): six rats
Protocol: (§3) This animal model has been used to investigate the pharmacokinetics of various stilbenes. The animal handling protocol was reviewed and approved by the Institutional Animal Care and Use Committee of the National University of Singapore (NUS). All animal experiments were carried out in Comparative Medicine Centre of NUS. Sprague-Dawley rats (male, 346 ± 18 g, bred by Centre for Animal Resources, NUS) were maintained on a 12 h light/dark cycle with free access to food and water. Polyethylene tube (inner diameter (I.D.) 0.58 mm, outside diameter (O.D.) 0.965 mm, Becton Dickinson, Sparks, MD, USA) was implanted into the right jugular vein under anaesthesia on the day before pharmacokinetic study. This catheter was used for intravenous drug administration as well as for blood sampling.
(§4) Twenty-two rats were divided into four groups. Group 1 and Group 2 (n = 5) received single intravenous bolus dose (4 mg/kg) of 2,3-DMS and 3,4-DMS respectively. Serial blood samples were collected before dosing (0 min) and at 5, 15, 30, 60, 90, 120, 180, 300, 480 and 660 min post-dosing. Group 3 and Group 4 (n = 6) received single oral dose (10 mg/kg) of 2,3-DMS and 3,4-DMS respectively through oral gavage and serial blood samples were collected before dosing (0 min) and at 15, 30, 45, 60, 90, 120, 180, 300, 480 and 660 min post-dosing. 0.3 mL heparin-saline (10 I.U./mL) was used to flush the cannular after each intravenous injection or blood sampling to maintain its patency. Blood samples were centrifuged at 3500 g at 4 °C for 5 min and plasma was collected and stored at −80 °C.
(§5) Pharmacokinetic parameters were derived using WinNonlin standard version 1.0 (Scientific Consulting Inc., Apex, NC, USA). […] Plasma exposure (area under the plasma concentration-time curve from 0 min to last measurable point (AUC0→last)) in rats receiving intravenous administration was calculated by the linear/log trapezoidal rule while the linear trapezoidal rule was used to calculate the plasma exposure in rats receiving oral administration. Clearance (Cl0→last), mean transit time (MTT0→last) and terminal half-life (t1/2 λZ) were calculated using non-compartmental analysis. Maximal plasma concentration (Cmax) and the time required to reach (tmax) were from direct experimental observations. Absolute oral bioavailability (F) of 2,3-DMS was calculated through reported method.

[4] = Intravenous pharmacokinetics in Sprague-Dawley rats; format: in vivo; details: intravenous 4 mg/kg; for plasma level relative to LLOQ (10 ng/mL) over sampling period: sampling up to 660 min; for B / α / β / A: two-compartment model; for A: HP-β-CD formulation; for AUC(0-t) / clearance / Vd / half-life: male, Sprague-Dawley, rat, plasma; for clearance: read-out: Cl (clearance); for Vd: read-out: Vc (volume of distribution of the central compartment); for half-life: read-out: t1/2 λZ (terminal elimination half-life)
Protocol: as §3, §4, §5

[5] = Stability in rat plasma (QC samples: short-term, freeze-thaw, long-term); format: in vitro ADME; details: read-out: Stability (% Remained); for remaining at 25 ng/mL / remaining at 400 ng/mL / remaining at 1400 ng/mL: Plasma samples after three freeze-thaw cycles; for remaining at 25 ng/mL / remaining at 6 h, 25 ng/mL / remaining at 240 h, 25 ng/mL: spiked 25 ng/mL; for remaining at 400 ng/mL / remaining at 6 h, 400 ng/mL / remaining at 240 h, 400 ng/mL: spiked 400 ng/mL; for remaining at 1400 ng/mL / remaining at 6 h, 1400 ng/mL / remaining at 240 h, 1400 ng/mL: spiked 1400 ng/mL; for remaining at 6 h, 25 ng/mL / remaining at 6 h, 400 ng/mL / remaining at 6 h, 1400 ng/mL: Plasma samples stored at 4 °C for 6 h; for remaining at 240 h, 25 ng/mL / remaining at 240 h, 400 ng/mL / remaining at 240 h, 1400 ng/mL: Plasma samples stored at −80 °C for 10 days
Protocol: as §2, with “Short-term room temperature stability (24 °C) of 2,3-DMS in rat plasma was examined after storing such samples at room temperature for 6 h.” left out

[6] = Rat liver microsome metabolic stability; format: in vitro ADME, Sprague-Dawley rat; details: for half-life at 0.6 µg/mL: Sprague-Dawley, pH 7.4, in the presence of NADPH, 37 °C; for half-life at 0.6 µg/mL / compound remained after microsomal incubation: rat liver microsomes; for stability in acetonitrile-inactivated microsomes: acetonitrile-inactivated microsomes (chemical stability); for compound remained after microsomal incubation: in the absence of NADPH, 45 min incubation
Protocol: RLM metabolic stabilities of 2,3-DMS and 3,4-DMS were examined by mixing Sprague-Dawley RLM with potassium phosphate buffer (pH = 7.4), NADPH regenerating solution B and either compounds to achieve a final compound concentration of 0.6 µg/mL. Negative control was set up, using Milli-Q water in place of NADPH. Chemical stability of compound in inactivated RLM was checked using similar system with acetonitrile/Milli-Q mixture instead of phosphate buffe.
Pre-incubation was done in 37 °C water bath for 5 min before NADPH A was added to initiate reaction. Aliquots were drawn at 0, 5, 15, 25, 35 and 45 min and quenched using ice cold trans-stilbene–acetonitrile working solution. Chemical stability was monitored at 0, 25 and 45 min. The samples were further processed for HPLC analysis as described above.
To assess extent of metabolism, percentage of compound remaining at each time point with respect to 0 min was calculated. Mean and standard deviation was obtained from column statistics using GraphPad Prism 5, version 5.03 for Windows, via raw means from the six replicates of each setup. Elimination half-lives were obtained from non-linear regression via one-phase exponential decay, where x was time in minutes, y was percentage remaining with respect to 0 min and a weighting factor of 1/y^2 was used.

[7] = Stock solution stability (DMSO stock, room temperature); format: physicochemical; details: Stock solution stored at 24 °C for 8 days, read-out: Stability (% Remained)
Protocol: as §1
Stabilities of 2,3-DMS in stock solution were evaluated after storage at room temperature for eight days. Stability of 2,3-DMS in rat plasma under different conditions was profiled with QC samples. Freeze-thaw stability was assessed after three freeze (−80 °C)–thaw (24 °C) cycles. Short-term room temperature stability (24 °C) of 2,3-DMS in rat plasma was examined after storing such samples at room temperature for 6 h. […] The stability of 3,4-DMS was assessed in the same way. […]

remaining at 24 h, 25 ng/mL [2] | remaining at 24 h, 400 ng/mL [2] | remaining at 24 h, 1400 ng/mL [2] | B [4] | α [4] | β [4] | A [4] | AUC(0-t) [4] | clearance [4] | Vd [4] | half-life [4] | remaining at 25 ng/mL [5] | remaining at 400 ng/mL [5] | remaining at 1400 ng/mL [5] | remaining at 6 h, 25 ng/mL [5] | remaining at 6 h, 400 ng/mL [5] | remaining at 6 h, 1400 ng/mL [5] | Structure (SMILES) | oral bioavailability (in words) [1] | post-dosing plasma samples above LLOQ (10 ng/mL) ([3]; oral 10 mg/kg) | plasma level relative to LLOQ (10 ng/mL) over sampling period [4] | also measured
– | – | – | – | – | – | – | – | – | – | – | – | – | – | – | – | – | Oc1cc(O)cc(/C=C/c2ccccc2)c1 [pinosylvine, trans-3,5-dihydroxystilbene] | much poorer than resveratrol | – | – | –
98.1 ± 5.7% | 98.1 ± 1.8% | 100.1 ± 0.6% | 55.9 ± 26.1 ng/mL | 5.25 ± 1.45 10^−2 × min^−1 | 3.85 ± 2.45 10^−3 × min^−1 | 702.7 ± 148.5 ng/mL | 427 ng·h/mL | 143 ± 40.5 mL/min/kg | 5.58 ± 1.73 L/kg | 193 ± 123 min | 106 ± 5.2% | 93.4 ± 0.7% | 92.4 ± 2.4% | 104 ± 6.6% | 94.7 ± 0.7% | 96.2 ± 0.4% | COc1ccc(/C=C/c2ccccc2)cc1OC [3,4-DMS, trans-3,4-dimethoxystilbene] | – | three post-dosing samples collected from one out of six rats | became unmeasurable at 11 h | oral bioavailability (in words) ([3]; oral 10 mg/kg, 10 mg/kg): even poorer than 2,3-DMS; also recorded: almost nil; clearance relative to rat hepatic blood flow [4]: three-fold; MTT0→last (mean transit time) ([4]; 4 mg/kg): 61.4 ± 27.1 min; remaining at 240 h, 25 ng/mL [5]: 91 ± 13.8%; remaining at 240 h, 400 ng/mL [5]: 93.6 ± 4.6%; remaining at 240 h, 1400 ng/mL [5]: 93 ± 3.7%; half-life at 0.6 µg/mL [6]: 16.6 min; stability in acetonitrile-inactivated microsomes [6]: good stability; compound remained after microsomal incubation [6]: 78.1% ± 5.3%; remaining at 192 h, 1 mg/mL [7]: 96.7 ± 2.7%
– | – | – | – | – | – | – | – | – | – | – | – | – | – | – | – | – | COc1ccc(/C=C/c2cc(OC)cc(OC)c2)cc1 [3,5,4'-trimethoxysilbene, trans-3,5,4'-trimethoxystilbene] | excellent or quite good oral bioavailability | – | – | –
– | – | – | – | – | – | – | – | – | – | – | – | – | – | – | – | – | COc1cc(/C=C/c2ccc(OC)c(OC)c2)cc(OC)c1 [trans-3,5,3',4'-tetramethoxystilbene] | excellent or quite good oral bioavailability | – | – | –
97.2 ± 2.5% | 100.1 ± 0.5% | 100.6 ± 0.7% | 135.6 ± 40.6 ng/mL | 5.02 ± 1.76 10^−2 × min^−1 | 3.08 ± 0.73 10^−3 × min^−1 | 1384.1 ± 251.4 ng/mL | 1160 ng·h/mL | 52 ± 7 mL/min/kg | 2.71 ± 0.51 L/kg | 289 ± 92.9 min | 102 ± 4.5% | 93.2 ± 1.2% | 91.8 ± 2.6% | 94.9 ± 4.4% | 95.5 ± 1.1% | 95.4 ± 0.6% | COc1cccc(/C=C/c2ccccc2)c1OC [2,3-DMS, trans-2,3-Dimethoxystilbene] | – | 32 out of 60 | remained quantifiable throughout our sampling period | Cmax ([3]; male, Sprague-Dawley, rat, plasma, oral 10 mg/kg): 37.5 ± 23.7 ng/mL; bioavailability ([3]; male, Sprague-Dawley, rat, plasma, oral 10 mg/kg vs intravenous 4 mg/kg, read-out: F (oral bioavailability)): 2.22 ± 2.13%; AUC(0-t) ([3]; male, Sprague-Dawley, rat, plasma, oral 10 mg/kg, HP-β-CD formulation): 64.3 ng·h/mL; MTT0→last (mean transit time) ([3]; oral 10 mg/kg): 83.2 ± 67.4 min; MTT0→last (mean transit time) [4]: 131.0 ± 4.5 min; remaining at 240 h, 25 ng/mL [5]: 107 ± 6.6%; remaining at 240 h, 400 ng/mL [5]: 96.6 ± 4.7%; remaining at 240 h, 1400 ng/mL [5]: 93.5 ± 4.1%; half-life at 0.6 µg/mL [6]: 14.2 min; stability in acetonitrile-inactivated microsomes [6]: good stability; compound remained after microsomal incubation [6]: 46.6% ± 4.6%; remaining at 192 h, 1 mg/mL [7]: 98.1 ± 2.1%
– | – | – | – | – | – | – | – | – | – | – | – | – | – | – | – | – | COc1cc(C=Cc2cc(OC)c(OC)c(OC)c2)cc(OC)c1 [3,4,5,3',5'-pentamethoxystilbene] | excellent or quite good oral bioavailability | – | – | –
